Reference: US12679855B2, “Inhibitors of the enzyme enolase for precision oncology” (Board of Regents, The University of Texas System, priority 2019, dated 2026)
Values joined by “and” are separate entries in the source; they are usually repeats but may differ in a detail not shown here. Equal values may be shown once. Read-outs that look alike come from different tables or passages of the source.

Experiments:
[1] = system: U343 glioma cell line (ENO1-heterozygously deleted); test: Enolase inhibitor sensitivity (crystal violet), ENO1-heterozygously deleted U343 cells; assay type: cell-based; conditions: DMEM 10% FBS, terminal cell density by crystal violet after 7 days
Protocol: (§1) Enolase inhibitor sensitivity experiments were performed, using DMEM containing 10% FBS cell culture media. IC50 (expressed in nM) were calculated based on terminal cell density measured by crystal violet after 7 days of growth. […] Left table: POMHEX. Middle table: HEX. Right table: Ratio of sensitivity to POMHEX versus HEX for each cell line.
(§2) (FIG. 19A) ENO1-deleted (D423, red), ENO1-isogenically rescued (D423 ENO1, blue), and ENO1-WT (LN319, grey) cells were treated POMHEX in RPMI media under the same experimental conditions used for NCI-60 screening. […] IC50 (expressed in nM) were calculated based on terminal cell density measured by crystal violet.
(§3) Cell proliferation assay.

[2] = Human plasma stability assay (31P NMR); assay type: in vitro ADME
Protocol: VCY17 (left) and POMHEX (right) were prepared at 1.5 mM and added to human plasma in an NMR tube with 10% D2O for signal lock. […] As expected, emergence of the second peak after 1 h is due to hydrolysis of the acetyl-protected hydroxamate; the nitroimidazole moiety remains attached (mono-ester phosphonates always show ^31P-chemical shifts <20 ppm); intact phosphoramidate mixed ester was verified by ^31P-^1H HSQC showing resonance with protons at ~5 ppm (—CH2—O—P) and 4 ppm (—CH2—NH—P). Note that VCY17 and de-acetylated VCY17 can come out as doublets: this is because two chiral centers (Phosphorus and C1) yield cis/trans diasteromers.
VCY13 (FIG. 20A) and VCY31 (FIG. 20B) are thioesterase-labile phosphonoamidates. ENO1-deleted (D423, red), ENO1-isogenically rescued (D423 ENO1, blue), and ENO1-WT (LN319, grey) cells were treated with either VCY13 or VCY31 for 5 days. […] (FIG. 20B) VCY31 is a structurally similar pro-drug that uses 2-picolylamine, rather than benzylamine, as a second pro-drug leave group. […] 4 mM VCY31 was dissolved in 80% human plasma, 20% D2O and monitored by ^31P NMR (121 MHz) for 15 hours. Intact VCY31 has a ^31P NMR shift of 33 ppm. Hydrolysis of the thioester begins to occur after 2 hours, as indicated by the emergence of a peak at ~16 ppm.
Human plasma stability assay. POMHEX and VCY17 (1.5 mM) were added to human plasma (Sigma #P9523) in an NMR tube with 10% D2O for signal lock. ^31P NMR measurements (31P CPD, 1000 transients) were conducted every 30 minutes on the first day and every 24 hours, for 4 days afterwards.

[3] = system: D502 glioma cell line (ENO1-heterozygously deleted); test: Enolase inhibitor sensitivity (crystal violet), ENO1-heterozygously deleted D502 cells; assay type: cell-based; conditions: DMEM 10% FBS, terminal cell density by crystal violet after 7 days
Protocol: as §1, §2, §3

[4] = system: D423 (ENO1-deleted) glioma cells; test: Cell proliferation assay (crystal violet) in ENO1-deleted glioma cells; assay type: cell-based; conditions: 4 days
[5] = system: glioma cell lines with different ENO1-deletion status; test: Enolase inhibitor sensitivity across glioma cell lines; assay type: cell-based
Protocol: as §1, §2

[6] = Plasma levels after IV injection of POMHEX in monkeys; assay type: in vivo, monkey
Protocol: (§4) FIGS. 16A-16C show the ex-vivo half-life of POMHEX in biological fluids limits its clinical utility. […] Lower levels of carboxylesterase in human blood results in a longer half-life of POMHEX. (FIG. 16B) Dramatically higher drug exposure in non-human primates as compared to mice following IV injections of POMHEX. Mice (n=3; pooled) and monkeys (n=3; pooled) were injected IV with POMHEX at 10 mg/kg and 2.5 mg/kg, respectively. […] POMHEX was undetectable (<50 nM) even at the earliest time point, in both monkey and mouse experiments; at 98 nM, POMHEX was detectable 1-minute post-injection, but at no time thereafter. […] HEX and HemiPOMHEX were not measured at concentrations higher than 10 mg/kg due to the hazards associated with the derivatization agent, trimethylsilyl-diazomethane in hexane (TMS-DAM). (FIG. 16C) Schematic of POMHEX in circulation when administered IP or IV in mice. Due to high levels of plasma carboxylesterase, a gradient decrease in POMHEX away from the site of injection is accompanied by a concurrent increase in HemiPOMHEX.

[7] = Plasma and organ levels after injection of POMHEX in mice; assay type: in vivo, mouse
Protocol: (§5) FIGS. 3A-3D show the ex-vivo half-life of POMHEX in biological fluids may limit its clinical utility. (FIG. 3A) Ex-vivo half-life of POMHEX in biological fluids. POMHEX has a half-life of ~30 seconds in mouse plasma. The degradation may be prevented by heat inactivation or de-proteinatization with acetonitrile. […] (FIG. 3B) Plasma concentration of HEX and HemiPOMHEX following a single intravenous injection of POMHEX, as a function of time. Mice were injected IV with 10 mg/kg POMHEX and sacrificed at the indicated time points. Each data point represents a single animal. Note, POMHEX itself was below the detection limit (100 nM) even at the earliest time point. It is believed that this may not be reflective of the physiological state as separation of plasma from hematocrit is required for the measurements, which adds approximately 6 minutes of processing time during which POMHEX may be degraded to HemiPOMHEX. (FIG. 3C) The results of the same experiment but performed with an intraperitoneal injection of POMHEX, at a dose of 40 mg/kg. (FIG. 3D) Quantification of POMHEX and its metabolites in mouse organs 24 hrs. after a single intravenous injection of 10 mg/kg POMHEX.
as §4, with “Due to high levels of plasma carboxylesterase, a gradient decrease in POMHEX away from the site of injection is accompanied by a concurrent increase in HemiPOMHEX.” left out

[8] = Ex-vivo stability in human blood; assay type: in vitro ADME
Protocol: as §5, with “(FIG. 3C) The results of the same experiment but performed with an intraperitoneal injection of POMHEX, at a dose of 40 mg/kg.” left out
FIGS. 16A-16C show the ex-vivo half-life of POMHEX in biological fluids limits its clinical utility. […] HEX and HemiPOMHEX were not measured at concentrations higher than 10 mg/kg due to the hazards associated with the derivatization agent, trimethylsilyl-diazomethane in hexane (TMS-DAM). […]

## CC(C)(C)C(=O)OCOP(=O)(OCOC(=O)C(C)(C)C)C1CCCN(O)C1=O (stereo not shown) [POMHEX]
[1]
  IC50: 559 nM
[2]; 1.5 mM, human plasma with 10% D2O, 31P NMR
  time of hydrolysis to HemiPOMHEX in human plasma: less than 1 h
[2]; FIG. 15
  longevity of intact POMHEX: 2 h
[3]
  IC50: 82 nM
[4]; 1% O2, read-out: IC50 for D423 ENO1-homozygously deleted glioma cells under 1% O2 hypoxia
  IC50: ~90 nM and 84 nM
[4]; 1% O2 versus 21% O2
  potency decrease under 1% O2: ~ 2.5 fold
[4]; normoxia (21% O2), read-out: IC50 for D423 ENO1-homozygously deleted glioma cells under normoxia
  IC50: ~40 nM and 31 nM
[5]
  specificity towards ENO1-heterozygous deleted cells compared to normal tissue: 10 fold
[5]; D423, D423 ENO1, LN319 cells, NCI-60 screening conditions
  sensitivity greater in RPMI as compared to DMEM media: ~ 3 fold
[5]; average across glioma cell lines
  potency of POMHEX greater than HEX, on average: ~ 75 fold
[6]; 1-minute post-injection, species not stated
  plasma concentration of POMHEX 1-minute post-injection: 98 nM
[6]; IV 2.5 mg/kg
  potentially higher toxicity in monkey: did not materialize
[6]; IV 2.5 mg/kg, even at the earliest time point
  plasma concentration of POMHEX, monkeys: < 50 nM
[7]; 24 hrs. after a single intravenous injection of 10 mg/kg POMHEX
  level in mouse organs: below the quantification limit (BQL)
[7]; IV 10 mg/kg, even at the earliest time point, 10 mg/kg
  plasma concentration of POMHEX, mice: < 100 nM and < 50 nM
[8]
  stability in human blood relative to mouse plasma: at least 20 times
